From patent publication US6787546B2, “Heterocycle derivatives and drugs” (Nippon Shinyaku Co., Ltd., priority 1999, dated 2004)
Values after ≈ are worked out from the molar mass of the structure shown. Read-outs that look alike come from different tables or passages of the source.

Tests used:
[1] = test system: Colon-26 (Mouse Colon Cancer) Cells; assay: Anticancer activity against Colon-26 cells transplanted in mice; format: in vivo; settings: day 21; for Tumor growth inhibition rate (%): 5 times at intervals of 4 days; for Number of Survival: 6 animals/group
Method: Anticancer Activity Against Colon-26 (Mouse Colon Cancer) Cells Transplanted in Mice
Colon-26 cells cultured in vitro were transplanted subcutaneously with an injection syringe in the right axillary region of Balb/c 5-week-old male mice (5×10^5 cells/animal). The mice were divided into groups of 6 animals/group when the tumor volume had reached about 120 mm^3 (Experiment 1) or about 100 mm^3 (Experiment 2). The test drug dissolved in 5% glucose solution was administered intravenously 5 times in total once daily at intervals of 4 days. The mice of control group were treated in the same manner with 5% glucose solution. The tumor volume was calculated according to the Equation 1 below on the basis of the major and minor axes of the tumor measured at a given interval with vernier calipers. [formula]
The growth rate was then calculated according to the Equation 2 based on the tumor volume, which was then applied to the Equation 3 for the calculation of the growth inhibition rate in drug-treatment group relative to the control group. [formula]
The tumor growth inhibition rate and the number of survivals at day 21 after initiation of the administration are shown in Table 1.

Solubility in water = format: physicochemical
Method: The water solubility of the compound of the present invention was measured at 25° C. As the control compounds, (E)-4-(2-(2-(N-(4-methoxybenzenesulfonyl)amino)-phenyl)ethenyl)pyridine 1-oxide (Compound A) and (E)-4-(2-(2-(N-acetyl-N-(4-methoxy-benzenesulfonyl)amino)phenyl)ethenyl)pyridine 1-oxide (Compound B) were used.

[2] = Experiment 2 (tumor about 100 mm^3 at start), 50 mg/kg i.v.
[3] = Experiment 2 (tumor about 100 mm^3 at start), 75 mg/kg i.v.
[4] = Experiment 1 (tumor about 120 mm^3 at start), 50 mg/kg i.v.
[5] = Experiment 1, dose not printed (second dose line of Example 5), i.v.
[6] = Experiment 1 (tumor about 120 mm^3 at start), 75 mg/kg i.v.

Compound: COc1ccc(S(=O)(=O)N(C(=O)CN)c2ccccc2/C=C/c2cc[n+]([O-])cc2)cc1.Cl
- melting point: 235 to 237 °C

Compound: COc1ccc(S(=O)(=O)N(C(=O)CN2CCCC2)c2ccccc2/C=C/c2cc[n+]([O-])cc2)cc1.Cl [Example 14, (E)-4-(2-(2-(N-(4-Methoxybenzenesulfonyl)-N-pyrrolidinoacetylamino) -phenyl)ethenyl)pyridine 1-oxide hydrochloride]
- Tumor growth inhibition rate (%) [1, 2]: 78.6%
- Tumor growth inhibition rate (%) [1, 3]: 84.1%
- Number of Survival ([1]; Experiment 2, 50 mg/kg i.v.): 6/6
- Number of Survival ([1]; Experiment 2, 75 mg/kg i.v.): 6/6

Compound: COc1ccc(S(=O)(=O)N(C(C)=O)c2ccccc2/C=C/c2cc[n+]([O-])cc2)cc1 [Compound B, (E)-4-(2-(2-(N-acetyl-N-(4-methoxy-benzenesulfonyl)amino)phenyl)ethenyl)pyridine 1-oxide]
- solubility (Solubility in water; 25° C., control compounds, read-out: water solubility): 18 µg/mL (≈ 42.4 µM)

Compound: COc1ccc(S(=O)(=O)N(C(=O)CN2CCN(c3cccnc3)CC2)c2ccccc2/C=C/c2cc[n+]([O-])cc2)cc1.Cl.Cl
- melting point: 167 °C (dec.)

Compound: COc1ccc(S(=O)(=O)N(C(=O)CN2CCCCC2)c2ccccc2/C=C/c2cc[n+]([O-])cc2)cc1.Cl [Example 5, (E)-4-(2-(2-(N-(4-Methoxybenzenesulfonyl)-N-piperidinoacetyl-amino)phenyl)ethenyl)pyridine 1-oxide hydrochloride]
- Tumor growth inhibition rate (%) [1, 4]: 78.0%
- Number of Survival ([1]; Experiment 1, 50 mg/kg i.v.): 6/6
- Tumor growth inhibition rate (%) [1, 5]: 87.7%
- Number of Survival [1, 5]: 6/6

Compound: COc1ccc(S(=O)(=O)N(C(=O)CN2CCOCC2)c2ccccc2/C=C/c2cc[n+]([O-])cc2)cc1.Cl [Example 13, (E) -4-(2-(2-(N-(4-Methoxybenzenesulfonyl)-N-morpholinoacetyl-amino)phenyl)ethenyl)pyridine 1-oxide hydrochloride]
- Tumor growth inhibition rate (%) [1, 2]: 73.8%
- Tumor growth inhibition rate (%) [1, 3]: 92.6%
- Number of Survival ([1]; Experiment 2, 50 mg/kg i.v.): 6/6
- Number of Survival ([1]; Experiment 2, 75 mg/kg i.v.): 6/6

Compound: COc1ccc(S(=O)(=O)N(C(=O)c2cccnc2)c2ccccc2/C=C/c2cc[n+]([O-])cc2)cc1.Cl.Cl
- melting point: 187 to 189 °C

Compound: COc1ccc(S(=O)(=O)N(C(=O)CN2CCN(c3ccccn3)CC2)c2ccccc2/C=C/c2cc[n+]([O-])cc2)cc1.Cl.Cl [Example 9, (E)-4-(2-(2-(N-(4-Methoxybenzenesulfonyl)-N-(4-(2-pyridyl)piperazino)acetylamino)phenyl)ethenyl)pyridine 1-oxide dihydrochloride]
- Tumor growth inhibition rate (%) [1, 4]: 80.8%
- Tumor growth inhibition rate (%) [1, 6]: 93.6%
- Number of Survival ([1]; Experiment 1, 50 mg/kg i.v.): 6/6
- Number of Survival ([1]; Experiment 1, 75 mg/kg i.v.): 5/6

Compound: COc1ccc(S(=O)(=O)N(C(=O)CN(C)C)c2ccccc2/C=C/c2cc[n+]([O-])cc2)cc1.Cl [Example 8, (E)-4-(2-(2-(N-(N,N-Dimethylglycyl)-N-(4-methoxybenzenesulfonyl) -amino)phenyl)ethenyl)pyridine 1-oxide hydrochloride]
- Tumor growth inhibition rate (%) [1, 4]: 87.0%
- Tumor growth inhibition rate (%) [1, 6]: 95.9%
- Number of Survival ([1]; Experiment 1, 50 mg/kg i.v.): 5/6
- Number of Survival ([1]; Experiment 1, 75 mg/kg i.v.): 5/6

Compound: COc1ccc(S(=O)(=O)Nc2ccccc2/C=C/c2cc[n+]([O-])cc2)cc1 [Compound A, (E)-4-(2-(2-(N-(4-methoxybenzenesulfonyl)amino)-phenyl)ethenyl)pyridine 1-oxide]
- solubility (Solubility in water; 25 °C): 29 µg/mL (≈ 75.8 µM)

Compound: COc1ccc(S(=O)(=O)N(C(=O)c2ccncc2)c2ccccc2/C=C/c2cc[n+]([O-])cc2)cc1.Cl.Cl
- melting point: 198 to 200 °C
